Test results reported in patent US20100286061A1, “PLASMIN-INHIBITORY THERAPIES” (priority 2004, published 2010).
“Also recorded” adds a separate entry of the source. Read-outs that look alike come from different tables or passages of the source. No end group written: not given here.

What was measured:
[1] = Pharmacokinetics of iodinated protein in normal mice; assay type: in vivo; conditions: tail vein injection
Experimental: (§1) Labeling: we used […] protein and the Iodogen (Pierce) method, ˜1.7 mCi. Purification: we used D-salt polyacrylamide column and collected fractions, with total recovery ˜90%. We pooled high yield fractions for injections. Mice: we injected […] via tail vein. One time point/animal; four animals/time point. We used the following time points: no PEG at 0, 7, 15, 30, and 90 min. PEG at 0, 7, 15, 30, and 90 min, 4, 8, 16, and 24 hrs. We analyzed total plasma counts, used HPLC on Superose 12 (stability), and analyzed biodistribution. Rabbits: we injected 80 mg/animal via left ear vein. Blood was drawn from the right ear at following time points: no PEG at 0, 7, 15, 30, 90 min, 4, 8, 16, 24, 48, 72, and 96 hrs. PEG at 0, 7, 15, 30, 90 min, 4, 8, 16, 24, 48, 72, 96, 120, 144, 168, and 192 hrs. We preformed the following analyses: total plasma counts and HPLC on Superose 12 (stability) at 48, 72, 96, 120, 144, 168, and 192 hrs.

LNCaP cells = test: Chemo-invasion through Matrigel, LNCaP cells (DHT-stimulated); assay type: cell-based
Experimental: (§2) Cell culture of tumor cell lines: HT-1080 (fibrosarcoma), and LNCaP (androgen-dependent prostate cancer) cell lines were grown to 80% confluence in Dulbecco's modified Eagle medium (DMEM) supplemented with 10% FCS, glutamine ([…]), sodium bicarbonate (2.1 g/l), ascorbic acid ([…]) and penicillin-streptomycin (P/S) (100 U/ml). LNCaP cells were stimulated with di-hydro-testosterone (DHT, 10 nM). Non-adherent HL-60 (acute myeloid leukemia) cell line was grown in RPMI medium supplemented with 20% FCS, glutamine 4 mM, sodium bicarbonate (1.5 g/l) and P/S (100 U/ml). Cultures were maintained at a cell concentration between 1e5 and 1e6/ml.
(§3) Chemo-invasion: HT-1080 and LNCaP cells were seeded at 10^6/well in 24-well cluster plates and incubated overnight. They were then incubated in the presence of a dose range of DX-1000 for 24 hours. […] Chemo-invasion was assessed using Transwell cell culture chamber inserts (Becton Dickinson) with Growth Factor Reduced-[…]® (GFR-[…]®) coated filters. After trypsinization, cells were seeded in the upper part of the invasion chamber (1e4/insert). RPMI medium supplemented with 5% FCS and 1% BSA and NIH3T3 CM used as chemoattractants for HT-1080 and LNCaP cells, respectively. After 24 hours of incubation at 37° C., filters were removed from the chambers, stained, and the % of invading cells was evaluated. Each condition was performed in duplicate.

HT-1080 cells [2] = test: Chemo-invasion through Matrigel, HT-1080 cells; assay type: cell-based
Experimental: as §2, §3

clot lysis = test: clot lysis
prothrombin time (PT) = conditions: concentrations>5.6 μM
SW-480 cells = test: Apoptosis (caspase 3/7 activity, FACS), SW-480; assay type: cell-based, human; conditions: also FACS assay
Experimental: (§4) Apoptosis was evaluated using an assay for detecting caspase 3/7 activity using caspase 3/7 substrate. Apoptosis was also not detected using a FACS assay.

endothelial cells = test: in vitro endothelial tubulogenesis (tube formation) assay, cell type not specified; assay type: cell-based; conditions: for inhibition of tubulogenesis / angiogenesis in vitro: qualitative
Experimental: (§5) Tube formation assay: HUVECs were cultured on gelatin-coated culture dishes in RPMI medium. The cells (passage 2) were seeded at 8e4/well of a 96-well plate on collagen type I (1.5 mg/ml, SERVA) in their culture medium (EGM-2 complete medium supplemented with 10% FCS) and allowed to spread for 1 hour. The culture medium was then discarded and the cells were covered with a new layer of collagen type I (1.5 mg/ml, new preparation). […] Mouse endothelial cells (EC) (LEII cell line) were seeded at 2e4/well of a 96-well plate on GFR-Matrigel (BD) in their culture medium (IMDM supplemented with 10% FCS) in presence of a dose range of DX-1000 and incubated at 37° C./5% CO2 for 5 hours. Endothelial tube formation was assessed with an inverted photomicroscope (Analis). Microphotographs of the center of each well at low power (40×) were taken with a NIKON camera with the aid of imaging-capture software (NIKON). Tube formation in the microphotographs was quantitatively analyzed (total tube length) with METAVUE™ software (Universal Imaging Corporation). Tube formation by untreated HUVECs in full endothelial cell growth medium was used as a control. IC50 values were determined with SIGMAPLOT™.
DX-1000 was also tested for its activity in an in vitro endothelial tubulogenesis assay (“tube formation assay” described in Methods.). […]

[3] = tested on: Mouse endothelial cells (EC) (LEII cell line); test: Tube formation assay, mouse endothelial cells (LEII) on GFR-Matrigel; assay type: cell-based; conditions: for IC50: total tube length, 5 hours
Experimental: as §5

HT-1080 cells [4] = test: Cell migration: scraping assay and Boyden chamber assay without Matrigel; assay type: cell-based; conditions: 1-10 μM in scraping assay
Experimental: Scraping assay: HT-1080 cells were seeded at 2e6/well in 6-well plates in complete medium. […] Cell layers were then scraped with a plastic tip.
The effect of DX-1000 on cell migration was evaluated using two different assays, the scraping assay and a Boyden chamber assay without Matrigel.

[5] = activated partial thromboplastin time (APTT)
platelet function = platelet function screening test
HUVECs = test: Tube formation assay, HUVECs on collagen type I; assay type: cell-based, human; conditions: for IC50: total tube length, 16-18 hours, read-out: IC50 tube formation, HUVEC
Experimental: as §5

SW480 cells = test: Soft agar colony formation; assay type: cell-based, human; conditions: 0.1 to 50 μM
Experimental: We also evaluated DX-1000 in an assay to measure the sensitivity of human tumors to drugs before progressing to in vivo studies. SW-480 cells are grown in vitro in soft agar, reducing cell movement and allowing individual cells to develop into cell clones that are identified as single colonies. 3,000 SW480 cells were seeded into each well of six well plates. Each treatment was run in triplicate. Five 4× images were taken from each well for quantification using the […]® software.

[6] = global coagulation screening tests (haemostasis in vitro)
[7] = tested on: plasmin-mediated pro-MMP-9 activation in HL-60 cells; test: Gelatin zymography of HL-60 conditioned media; assay type: cell-based; conditions: for inhibition of plasmin-mediated pro-MMP-9 activation: HL-60 cells, gelatin zymography, 1 μM, 48 hours
Experimental: as §2
Gelatin zymography: HL-60 cells were cultured in serum-free medium (Ultraculture medium). Different conditions were considered: with and w/o DX-1000 at 1 μM; with or without pro-MMP-9 activators (plasmin+pro-MMP-3). Cells were cultured at 37° C./5% CO2 for 48 hours. Aliquots of conditioned media (CM) were then collected, clarified by centrifugation, mixed with electrophoresis sample buffer without reducing agent, and applied to 10% acrylamide gels containing gelatin (1 mg/ml). Active recombinant gelatinases served as standard. Samples were resolved at 20 mA, washed in 2% Triton X-100 for 1 hour and incubated at 37° C. for 16 hours in activation buffer containing 50 mM Tris-HCl, pH 7.4, 0.2 M NaCl, 5 mM CaCl2. After staining with Coomassie brilliant blue R-250, the gelatinolytic activities were detected as clear bands against the blue background.

[8] = tested on: plasmin-activated MMP-9 activity; test: BIOTRAK assay kit, MMP-9 activity in HL60 conditioned media; assay type: cell-based; conditions: 1 μM, HL60, two days of culture
Experimental: In addition to gelatin zymography, we evaluated the plasmin inhibitors using the BIOTRAK® assay kit. HL60 were seeded at 4×10^5 cells/well (24 wells plate) in a serum free medium (UltraCulture medium). The day after, different conditions were evaluated: samples with and without activators of pro-MMP9 (Plasmin and pro-MMP-3) and samples with and without DX-1000 and 4-PEG-DX-1000 (1 μM). After two days of culture, conditioned media were collected an activity of MMP-9 was assessed using the BIOTRAK® assay kit. Assay time was approximately one hour under standard conditions. At a 1 μM concentration, DX-1000 and 4-PEG DX-1000 effected an approximately 68-70% reduction in plasmin-activated MMP-9 activity.

human plasmin = human plasmin (Homo sapiens, UniProt P00747); test: plasmin inhibition (Ki); assay type: biochemical
Clauss fibrinogen assay = conditions: concentrations>5.6 μM
fibrinolysis = test: Thrombelastography (TEG); conditions: 280-560 nM DX-1000
HL-60 cells = test: Apoptosis (caspase 3/7 activity, FACS), HL-60; assay type: cell-based; conditions: also FACS assay
Experimental: as §4

[9] = Pharmacokinetics of iodinated protein in rabbits; assay type: in vivo; conditions: rabbit, ear vein injection
Experimental: as §1

[10] = Allometric extrapolation of stability to humans; conditions: allometric extrapolations from mouse and rabbit
From the text: By allometric extrapolations, we should expect a stability of 9 days in humans.

[11] = DX-1000 1-10 nM, Matrigel or collagen type I

Chain of human plasmin (P00747 581-810 limits assumed): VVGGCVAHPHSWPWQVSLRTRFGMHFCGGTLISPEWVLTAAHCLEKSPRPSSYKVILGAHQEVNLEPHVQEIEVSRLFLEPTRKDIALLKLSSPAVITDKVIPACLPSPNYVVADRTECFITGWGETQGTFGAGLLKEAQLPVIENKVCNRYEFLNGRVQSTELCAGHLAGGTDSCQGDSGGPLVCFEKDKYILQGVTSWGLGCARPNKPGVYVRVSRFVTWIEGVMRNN
Chain of human plasmin (P00747 97-580 partner limits assumed): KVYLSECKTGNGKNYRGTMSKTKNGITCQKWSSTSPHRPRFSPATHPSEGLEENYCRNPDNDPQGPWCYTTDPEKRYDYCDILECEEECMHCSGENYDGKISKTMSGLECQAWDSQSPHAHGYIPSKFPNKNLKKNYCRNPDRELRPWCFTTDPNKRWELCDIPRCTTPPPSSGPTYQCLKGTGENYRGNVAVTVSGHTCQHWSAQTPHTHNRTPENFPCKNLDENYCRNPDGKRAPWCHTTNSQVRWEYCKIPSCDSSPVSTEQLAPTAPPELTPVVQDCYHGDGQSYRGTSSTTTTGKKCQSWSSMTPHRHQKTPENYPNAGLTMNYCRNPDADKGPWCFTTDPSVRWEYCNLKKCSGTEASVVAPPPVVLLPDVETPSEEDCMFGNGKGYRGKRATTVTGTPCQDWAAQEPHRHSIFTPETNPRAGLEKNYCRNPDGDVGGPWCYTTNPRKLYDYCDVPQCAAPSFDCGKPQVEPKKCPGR

## DX-1000: Kunitz domain that inhibits human plasmin; framework region of human LACI; SEQ ID NO:22 or 23 (MHSFCAFKAETGPCRARFDRWFFNIFTRQCEEFIYGGCEGNQNRFESLEECKKMCTRD)
[1]
  half-life: 0.45 h
LNCaP cells
  concentrations effective at inhibiting invasion in vitro (LNCaP): effective at nanomolar and sub-nanomolar concentrations
  in vitro invasiveness of tumor cells (LNCaP): decreased in vitro invasiveness of tumor cells; also recorded: decreases the in vitro invasiveness of tumor cells
  potency in invasion assay compared with aprotinin (LNCaP): more potent inhibitor than aprotinin
LNCaP cells; DX-1000 1 nM
  inhibition of DHT-stimulated invasion of LNCaPs through Matrigel: inhibited
HT-1080 cells [2]
  concentrations effective at inhibiting invasion in vitro (HT-1080): effective at nanomolar and sub-nanomolar concentrations
  in vitro invasiveness of tumor cells (HT-1080): decreased in vitro invasiveness of tumor cells; also recorded: decreases the in vitro invasiveness of tumor cells
  potency in invasion assay compared with aprotinin (HT-1080): more potent inhibitor than aprotinin
HT-1080 cells [2]; DX-1000 1 nM
  inhibition of invasion of HT-1080 through Matrigel: inhibited
Clot lysis
  concentration at which inhibition of clot lysis was observed: > 700 nM
Prothrombin time (PT)
  effect on prothrombin time (PT): did not observe an effect
SW-480 cells
  induction of apoptosis in SW-480 cells: do not induce apoptosis
Endothelial cells
  efficiency at inhibiting tube formation compared with aprotinin: at least as efficient as aprotinin
  inhibition of tubulogenesis / angiogenesis in vitro: decreased in vitro angiogenesis; also recorded: potent inhibitor of tubulogenesis in vitro
[3]; [11]
  tube formation of mouse endothelial cells: efficiently blocked tube formation
[3]
  IC50: 16.6 nM
HT-1080 cells [4]
  two-dimensional migration of HT-1080 cells in vitro: did not inhibit migration; also recorded: does not inhibit
[5]; 1.4-5.6 μM
  APTT clotting times versus normal range: remained within the normal range
[5]; higher doses (1.4-5.6 μM)
  effect on activated partial thromboplastin time (APTT): weak dose-dependent effect
Platelet function
  effects in platelet function screening test: no clinically significant effects
HUVECs; [11]
  tube formation of human endothelial cells: efficiently blocked tube formation
HUVECs; listed as DX-1000 (unmodified)
  IC50: 1.39 nM
SW480 cells
  colony formation by SW480 cells: did not inhibit colony formation
[6]
  effects in global coagulation screening tests / haemostasis in vitro: did not significantly influence haemostasis in vitro; also recorded: did not detect any clinically significant effects; also recorded: no clinically significant effects
[7]
  inhibition of plasmin-mediated pro-MMP-9 activation: 64%
[7]; qualitative
  MMP (gelatinase) expression and activation: inhibited plasmin-mediated MMP activation; also recorded: down-regulates MMP expression and activation; also recorded: down-regulated efficiently the expression and activation of gelatinases
[8]
  reduction in plasmin-activated MMP-9 activity: 68-70%
Human plasmin
  Ki: 0.088 nM
Clauss fibrinogen assay
  effect on Clauss fibrinogen assays: did not observe an effect
fibrinolysis; two subjects with upper normal values
  fibrinolysis in thrombelastography (TEG): inhibition of fibrinolysis
fibrinolysis; tPA
  fibrinolysis in TEG with tPA: reduction in fibrinolysis
HL-60 cells
  induction of apoptosis in HL-60 cells: do not induce apoptosis
[9]
  half-life: about 1 h

## 4-PEG DX-1000: exemplary modified DX-1000 molecule that includes four PEG moieties (MHSFCAFKAETGPCRARFDRWFFNIFTRQCEEFIYGGCEGNQNRFESLEECKKMCTRD; cysteine pairing not given here; also: four PEG moieties, places not given here)
[1]
  half-life: 13 h
SW-480 cells
  induction of apoptosis in SW-480 cells: do not induce apoptosis
Endothelial cells
  inhibition of tubulogenesis / angiogenesis in vitro: also inhibited tube formation
Endothelial cells; read-out: IC50 tube formation, cell type not given
  IC50: 0.98 ± 1.25 nM
[3]
  IC50: 15.8 nM
HUVECs
  IC50: 8.3 nM
SW480 cells
  colony formation by SW480 cells: did not inhibit colony formation
[7]
  inhibition of plasmin-mediated pro-MMP-9 activation: 92%
[8]
  reduction in plasmin-activated MMP-9 activity: 68-70%
HL-60 cells
  induction of apoptosis in HL-60 cells: do not induce apoptosis
[9]
  half-life: 59 h
[10]
  expected stability in humans: 9 days
